Experiments:
Assay type in all cases: cell-based
[1] = system: A. evansii cells; assay: [14C]-PA uptake assay in A. evansii cells grown under nitrate-reducing conditions; conditions: Aromatoleum evansii; cells grown anaerobically on PA, exposed to 1 mM inhibitor before the [14C]-PA transport assay; read-out: PA transport capacity retained
Experimental: Cells were grown in NB from A600 of 0.1 to A600 of 1.8≈2.0, incubated for 14h, induced by adding 1.0 mM IPTG. Cells were harvested by centrifugation, washed twice in sodium salt and suspended at a cell density of 1090 mg of protein/liter (A600 of 4.0) in sodium salt. The uptake of radioactive o-phthalate into cells was followed in a reaction mixture containing 50 µL of prewarmed cells (at 30°C for 5 min) and 50 µL of 250 µM [^14C]-o-phthalate. […] Phthalate uptake was stopped by diluting the suspensions with 1 mL of ice-cold sodium salt, collecting the cells on a 0.22-µm-pore-size Millipore GSWP nitrocellulose filter, and washing, under suction, the cells with 5 mL of ice-cold sodium salt. The filter was dissolved in 2 ml of scintillation fluid (Cocktail Ready Safe, Beckman) and counted in an LKB Wallac liquid scintillation counter. […] To test the transporter's specificity the assays were performed according to the standard procedure but adding different unlabeled substrates: o-phthalate (250 mM), isophthalate (250 mM), terephthalate (250 mM).
To study PA transport in denitrifying bacteria expressing the pht peripheral pathway, we used A. evansii cells grown anaerobically in MC medium containing 5 mM benzoate or 5 mM PA. Cells suspended in sodium salt were incubated with 25 µM [^14C]-PA, and a time-course of the amount of [^14C]-PA incorporated into the cells was determined. […]

[2] = system: PhtTa-PhtTb TAXI-TRAP transporter; assay: [14C]-PA uptake assay in Azoarcus sp. CIB (pIZPHTRAP) cells expressing the transporter; conditions: for [14C]-PA uptake after pre-incubation with inhibitor: cells pre-incubated 10 min with 1 mM inhibitor before the transport assay; for [14C]-PA uptake rate, % of the rate in the absence of a competitor substrate: 25 µM [14C]-PA
Experimental: Cells were grown in NB from A600 of 0.1 to A600 of 1.8≈2.0, incubated for 14h, induced by adding 1.0 mM IPTG. Cells were harvested by centrifugation, washed twice in sodium salt and suspended at a cell density of 1090 mg of protein/liter (A600 of 4.0) in sodium salt. […] Phthalate uptake was stopped by diluting the suspensions with 1 mL of ice-cold sodium salt, collecting the cells on a 0.22-µm-pore-size Millipore GSWP nitrocellulose filter, and washing, under suction, the cells with 5 mL of ice-cold sodium salt. The filter was dissolved in 2 ml of scintillation fluid (Cocktail Ready Safe, Beckman) and counted in an LKB Wallac liquid scintillation counter. […]
We have shown above that the phtTa-phtTb transport genes are essential for the anaerobic degradation of PA. To confirm that the phtTa-phtTb genes encode a PA transporter and to determine its biochemical properties, we performed PA uptake experiments at different [^14C]-PA concentrations in Azoarcus sp. […] CIB (pIZPHTRAP), i.e., cells that express the catabolic pht genes as well as the phtTa-phtTb transport genes - the genetic cassette of the invention. […]. […] [^14C]-PA uptake rates were tested in the presence of non-radioactive phthalate isomers as competitors.

[3] = system: benA gene; assay: real-time RT-PCR gene expression in C. necator H16 (pIZPHTRAP) cells; conditions: cells grown on 3 mM PA compared with 18 mM pyruvate (control); result in words
Experimental: (§1) Cupriavidus necator H16 and Azoarcus sp. CIB cells harboring plasmid pIZPHTRAP were grown aerobically on PA-, benzoate- or pyruvate-containing MC medium until the culture reached to the end of the exponential phase. Cells were lysed in TE buffer (10 mM Tris-HCI, pH 7.5, 1 mM EDTA) containing 50 mg ml^-1 lysozyme. Total RNA was extracted using a High Pure RNA isolation kit (Roche), and then it was DNase-treated with a Turbo DNase kit (Ambion). The concentration and purity of the RNA samples were assessed using a Nanophotometer Pearl (Implen) according to the manufacturer's protocols, and by testing the absence of DNA through PCR amplification. Synthesis of total cDNA was performed by using the Transcriptor First Strand cDNA Synthesis kit (Roche) in 20-µl reactions containing 1 µg of RNA, 1 mM concentration of each dNTP, 10 units of reverse transcriptase, 20 units of Protector RNase Inhibitor, and 60 µM random hexamers as primers in the buffer provided by the manufacturer. The RNA and hexamers were initially heated at 65 °C for 10 min and following the addition of the rest of the components, samples were incubated at 25°C for 10 min and then at 55°C for 30 min. Reactions were terminated by incubation at 85°C for 5 min. In standard RT-PCR reactions, the cDNA was amplified with 1 unit of AmpliTaq DNA polymerase (Biotools) and […] concentrations of the corresponding primer pairs of the boxB gene from Azoarcus sp. CIB (Table 2). […] For relative quantification of the fluorescence values, a calibration curve was constructed by sevenfold serial dilutions of a C. necator H16 genomic DNA sample ranging from 1 ng to 0.5 x10-7 ng. […]
(§2) To confirm that C. necator H16 (pIZPHTRAP) was degrading PA via the box pathway, we analyzed the expression of some marker genes of the classical ben-cat pathway, e.g. benA gene, and the hybrid box pathway, e.g., boxB1 (for cluster box1) and boxB2 (for cluster box2) (Fig. 5C). qRT-PCR gene expression studies of C. necator H16 (pIZPHTRAP) cells grown on PA were compared with those of cells grown on pyruvate (control). […]

[4] = system: boxB1 gene; assay: as above; conditions: cells grown on 3 mM PA compared with 18 mM pyruvate (control)
Experimental: as §1, §2

[5] = system: boxB2 gene; assay: as above; conditions: cells grown on 3 mM PA compared with 18 mM pyruvate (control)
Experimental: as §1, §2

[6] = system: Azoarcus sp. CIB (pIZPHTRAP) strain
[7] = system: C. necator H16 (pIZPHTRAP) cells; assay: PHB content by GC-MS of the methanolysed polyester, aerobic bioconversion; conditions: cells grown aerobically on the substance as sole carbon source (3 mM), MC medium, 30°C, stationary phase

C(=NC1CCCCC1)=NC1CCCCC1 [DCCD, 1,3-dicyclohexylcarbodiimide, reference compound]
activity at 1000 µM [1]: > 80%
[14C]-PA uptake after pre-incubation with inhibitor ([2]; result in words): did not decrease

O=[N+]([O-])c1ccc(O)c([N+](=O)[O-])c1 [DNP, 2,4-dinitrophenol, reference compound]
[14C]-PA uptake after pre-incubation with inhibitor ([2]; result in words): completely inhibited

O=C(O)c1ccccc1C(=O)O [PA, o-phthalate]
uptake rate of 25 µM [14C]-PA with competitor ([2]; 250 µM unlabeled competitor, result in words): completely inhibited
Km ([2]; Azoarcus sp. CIB (pIZPHTRAP) cells, read-out: transport affinity (Km)): 15 µM
saturation kinetics ([2]; PA concentration at saturation, Azoarcus sp. CIB (pIZPHTRAP) cells): about 20 µM
maximum uptake rate ([2]; [14C]-PA 5 to 25 µM, Azoarcus sp. CIB (pIZPHTRAP) cells): about 156 ± 14 pmol min^-1 mg protein^-1
basal expression of the benA gene [3]: similar
fold induction at 3000 µM [4]: ~40
fold induction at 3000 µM [5]: ~400
PHB production efficiency, lower than that of the recombinant C. necator H16 strain [6]: 5 fold

O=C(O)c1ccccc1 [benzoate]
PHB accumulated, of the total cell dry weight [7]: 14%

O=C(O)c1cccc(C(=O)O)c1 [isophthalate, reference compound]
[14C]-PA uptake rate, % of the rate in the absence of a competitor substrate ([2]; 250 µM unlabeled competitor): 50%

O=C(O)c1ccc(C(=O)O)cc1 [terephthalate, reference compound]
[14C]-PA uptake rate, % of the rate in the absence of a competitor substrate ([2]; 250 µM unlabeled competitor): 60%

Source: patent EP3875583A1, “GENETIC CASSETTE COMPRISING THE PHT PATHWAY GENES, RECOMBINANT HOST CELLS COMPRISING IT AND THEIR USE IN THE DEGRADATION AND VALORIZATION OF PHTHALATES” (Consejo Superior de Investigaciones Científicas (CSIC), priority 2020, dated 2021)
